{"source": "patent US20120076781A1", "about": "“METHODS OF TREATING CANCERS WITH HER3 ANTISENSE OLIGONUCLEOTIDES” (ENZON PHARMACEUTICALS, INC., priority 2009, published 2012)", "type_in_all_cases": "cell-based", "details_in_all_cases": "25 nM", "key": {"human EGFR mRNA": {"system": "human EGFR mRNA", "test": "Down-regulation of EGFR mRNA in transfected 15PC3 cells, real-time PCR", "protocol": "(§1) 15PC3: The human prostate cancer cell line 15PC3 was cultured in DMEM (Sigma)+10% fetal bovine serum (FBS)+2 mM Glutamax I+gentamicin (25 μg/ml).\n(§2) The cells were treated with oligonucleotides using the cationic liposome formulation LipofectAMINE 2000 (Gibco) as transfection vehicle. Cells were seeded in 6-well cell culture plates (NUNC) and treated when 80-90% confluent. Oligomer concentrations ranged from 1 nM to 25 nM final concentration. Formulation of oligomer-lipid complexes was carried out essentially as described by the manufacturer using serum-free OptiMEM (Gibco) and a final lipid concentration of 5 μg/mL LipofectAMINE 2000. Cells were incubated at 37° C. for 4 hours and treatment was stopped by removal of oligomer-containing culture medium. Cells were washed and serum-containing medium was added. After oligomer treatment, cells were allowed to recover for 20 hours before they were harvested for RNA analysis.\n(§3) Total RNA was extracted from cells transfected as described above and using the Qiagen RNeasy kit (Qiagen cat. no. 74104) according to the manufacturer's instructions. First strand synthesis was performed using Reverse Transcriptase reagents from Ambion according to the manufacturer's instructions.\n(§4) For each sample 0.5 μg total RNA was adjusted to (10.8 μl) with RNase free H2O and mixed with 2 μl random decamers (50 μM) and 4 μl dNTP mix (2.5 mM each dNTP) and heated to 70° C. for 3 min after which the samples were rapidly cooled on ice. After cooling the samples on ice, 2 μl 10× Buffer RT, 1 μl MMLV Reverse Transcriptase (100 U/μl) and 0.25 μl RNase inhibitor (10 U/μl) was added to each sample, followed by incubation at 42° C. for 60 min, heat inactivation of the enzyme at 95° C. for 10 min, and then cooling the sample to 4° C.\n(§5) The sample content of human HER3, EGFR and HER2 mRNA was quantified using the human HER3, EGFR and HER2 ABI Prism Pre-Developed TaqMan Assay Reagents (Applied Biosystems cat. no. Hs00951444_ml (HER3), Hs00193306_ml (EGFR) and Hs00170433_ml (HER2) according to the manufacturer's instructions.\n(§6) Glyceraldehyde-3-phosphate dehydrogenase (GAPDH) mRNA quantity was used as an endogenous control for normalizing any variance in sample preparation. The sample content of human GAPDH mRNA was quantified using the human GAPDH ABI Prism Pre-Developed TaqMan Assay Reagent (Applied Biosystems cat. no. 4310884E) according to the manufacturer's instructions.\n(§7) The cDNA from the first strand synthesis performed as described in Example 5 was diluted 2-20 times, and analyzed by real time quantitative PCR using Taqman 7500 FAST or 7900 FAST from Applied Biosystems. The primers and probe were mixed with 2× Taqman Fast Universal PCR master mix (2×) (Applied Biosystems Cat. #4364103) and added to 4 μl cDNA to a final volume of 10 μl. Each sample was analysed in duplicate. Assaying 2-fold dilutions of a cDNA that had been prepared on material purified from a cell line expressing the RNA of interest generated standard curves for the assays. Sterile H2O was used instead of cDNA for the no-template control. PCR program: 95° C. for 30 seconds, followed by 40 cycles of 95° C., 3 seconds, 60° C., 20-30 seconds. Relative quantities of target mRNA sequence were determined from the calculated Threshold cycle using the Applied Biosystems Fast System SDS Software Version 1.3.1.21. or SDS Software Version 2.3.\n(§8) Oligonucleotides presented in Table 4 were evaluated for their potential to down-regulate HER3, EGFR and HER2 mRNA at concentrations of 1, 5 and 25 nM in 15PC3 cells (or HUH-7 as indicated by *) (see FIGS. 2, 3, 4 and 5). SEQ ID NOs: 235 and 236 were used as scrambled controls.\n(§9) The data in Table 4 are presented as percentage down-regulation of mRNA relative to mock transfected cells at 25 nM. Lower-case letters represent DNA monomers, bold, upper-case letters represent β-D-oxy-LNA monomers. All cytosines in LNA monomers are 5-methylcytosines. Subscript “s” represents a phosphorothioate linkage."}, "human HER2 mRNA": {"system": "human HER2 mRNA", "test": "Down-regulation of HER2 mRNA in transfected 15PC3 cells, real-time PCR", "protocol": "as §1, §2, §3, §4, §5, §6, §7, §8, §9"}, "human HER3 mRNA": {"system": "human HER3 mRNA", "test": "Down-regulation of HER3 mRNA in transfected 15PC3 cells, real-time PCR", "protocol": "as §1, §2, §3, §4, §5, §6, §7, §8, §9"}}, "note": "In the oligonucleotide strings, read from the 5' end, every base follows the letter of its sugar. An asterisk marks phosphorothioate; unmarked linkages are phosphodiester. Other units and linkages are bracketed, terminal groups are in braces. A string of capitals states the bases alone. l = locked nucleic acid (LNA); [5mC] = 5-methylcytosine; d = 2'-deoxy (DNA)", "data": [{"substance": "ASTSASgScStScScSaSgSaScSaSTSCSA (antisense lA*lT*lA*dG*dC*dT*dC*dC*dA*dG*dA*dC*dA*lT*l[5mC]*lA) [SEQ ID NO: 173, β-D-oxy-LNA/DNA phosphorothioate gapmer antisense oligonucleotide targeting HER3]", "values": [{"measurement": "EGFR: percentage down-regulation of mRNA relative to mock transfected cells", "setting": "human EGFR mRNA", "result": 96.4, "unit": "%"}, {"measurement": "HER2: percentage down-regulation of mRNA relative to mock transfected cells", "setting": "human HER2 mRNA", "result": 39.2, "unit": "%"}]}, {"substance": "ASTSCScSaSaScSaScStStSgSaSCSCSA (antisense lA*lT*l[5mC]*dC*dA*dA*dC*dA*dC*dT*dT*dG*dA*l[5mC]*l[5mC]*lA) [SEQ ID NO: 176, β-D-oxy-LNA/DNA phosphorothioate gapmer antisense oligonucleotide targeting HER3]", "values": [{"measurement": "HER3: percentage down-regulation of mRNA relative to mock transfected cells", "setting": "human HER3 mRNA", "result": 61.6, "unit": "%"}, {"measurement": "EGFR: percentage down-regulation of mRNA relative to mock transfected cells", "setting": "human EGFR mRNA", "result": 79.4, "unit": "%"}, {"measurement": "HER2: percentage down-regulation of mRNA relative to mock transfected cells", "setting": "human HER2 mRNA", "result": 74.8, "unit": "%"}]}, {"substance": "CSASASgSgScStScSaScSaScSaSTSCST (antisense l[5mC]*lA*lA*dG*dG*dC*dT*dC*dA*dC*dA*dC*dA*lT*l[5mC]*lT) [SEQ ID NO: 182, β-D-oxy-LNA/DNA phosphorothioate gapmer antisense oligonucleotide targeting HER3]", "values": [{"measurement": "HER3: percentage down-regulation of mRNA relative to mock transfected cells", "setting": "human HER3 mRNA", "result": 74.6, "unit": "%"}]}, {"substance": "CSASAStScSaStScScSaSaScSaSCSTST (antisense l[5mC]*lA*lA*dT*dC*dA*dT*dC*dC*dA*dA*dC*dA*l[5mC]*lT*lT) [SEQ ID NO: 177, β-D-oxy-LNA/DNA phosphorothioate gapmer antisense oligonucleotide targeting HER3]", "values": [{"measurement": "HER3: percentage down-regulation of mRNA relative to mock transfected cells", "setting": "human HER3 mRNA", "result": 51.1, "unit": "%"}, {"measurement": "EGFR: percentage down-regulation of mRNA relative to mock transfected cells", "setting": "human EGFR mRNA", "result": 0, "unit": "%"}, {"measurement": "HER2: percentage down-regulation of mRNA relative to mock transfected cells", "setting": "human HER2 mRNA", "result": 63.4, "unit": "%"}]}, {"substance": "CSASGSaScSaStScSaScStScStSGSGST (antisense l[5mC]*lA*lG*dA*dC*dA*dT*dC*dA*dC*dT*dC*dT*lG*lG*lT) [SEQ ID NO: 171, β-D-oxy-LNA/DNA phosphorothioate gapmer antisense oligonucleotide targeting HER3]", "values": [{"measurement": "HER3: percentage down-regulation of mRNA relative to mock transfected cells", "setting": "human HER3 mRNA", "result": 70.6, "unit": "%"}, {"measurement": "EGFR: percentage down-regulation of mRNA relative to mock transfected cells", "setting": "human EGFR mRNA", "result": 84.2, "unit": "%"}, {"measurement": "HER2: percentage down-regulation of mRNA relative to mock transfected cells", "setting": "human HER2 mRNA", "result": 2.8, "unit": "%"}]}, {"substance": "CSASTSaScStScScStScSaStScSTSTSC (antisense l[5mC]*lA*lT*dA*dC*dT*dC*dC*dT*dC*dA*dT*dC*lT*lT*l[5mC]) [SEQ ID NO: 193, β-D-oxy-LNA/DNA phosphorothioate gapmer antisense oligonucleotide targeting HER3]", "values": [{"measurement": "HER3: percentage down-regulation of mRNA relative to mock transfected cells", "setting": "human HER3 mRNA", "result": 64, "unit": "%"}]}, {"substance": "CSASTScScSaSaScSaScStStSgSASCSC (antisense l[5mC]*lA*lT*dC*dC*dA*dA*dC*dA*dC*dT*dT*dG*lA*l[5mC]*l[5mC]) [SEQ ID NO: 175, β-D-oxy-LNA/DNA phosphorothioate gapmer antisense oligonucleotide targeting HER3]", "values": [{"measurement": "HER3: percentage down-regulation of mRNA relative to mock transfected cells", "setting": "human HER3 mRNA", "result": 65.5, "unit": "%"}, {"measurement": "EGFR: percentage down-regulation of mRNA relative to mock transfected cells", "setting": "human EGFR mRNA", "result": 86.1, "unit": "%"}, {"measurement": "HER2: percentage down-regulation of mRNA relative to mock transfected cells", "setting": "human HER2 mRNA", "result": 76.9, "unit": "%"}]}, {"substance": "CSASTSgStSaSgSaScSaStScSaSASTST (l[5mC]*lA*lT*dG*dT*dA*dG*dA*dC*dA*dT*dC*dA*lA*lT*lT; antisense) [SEQ ID NO: 179]", "values": [{"measurement": "HER3: percentage down-regulation of mRNA relative to mock transfected cells", "setting": "human HER3 mRNA", "result": 70.5, "unit": "%"}, {"measurement": "EGFR: percentage down-regulation of mRNA relative to mock transfected cells", "setting": "human EGFR mRNA", "result": 52.6, "unit": "%"}, {"measurement": "HER2: percentage down-regulation of mRNA relative to mock transfected cells", "setting": "human HER2 mRNA", "result": 75.6, "unit": "%"}]}, {"substance": "CSASTStScSaSaSgStStScStStSCSAST (antisense l[5mC]*lA*lT*dT*dC*dA*dA*dG*dT*dT*dC*dT*dT*l[5mC]*lA*lT) [SEQ ID NO: 184, β-D-oxy-LNA/DNA phosphorothioate gapmer antisense oligonucleotide targeting HER3]", "values": [{"measurement": "HER3: percentage down-regulation of mRNA relative to mock transfected cells", "setting": "human HER3 mRNA", "result": 81.1, "unit": "%"}]}, {"substance": "CSTSCScSaSgSaScSaStScSaScSTSCST (antisense l[5mC]*lT*l[5mC]*dC*dA*dG*dA*dC*dA*dT*dC*dA*dC*lT*l[5mC]*lT) [SEQ ID NO: 170, β-D-oxy-LNA/DNA phosphorothioate gapmer antisense oligonucleotide targeting HER3]", "values": [{"measurement": "EGFR: percentage down-regulation of mRNA relative to mock transfected cells", "setting": "human EGFR mRNA", "result": 91.5, "unit": "%"}, {"measurement": "HER2: percentage down-regulation of mRNA relative to mock transfected cells", "setting": "human HER2 mRNA", "result": 65.8, "unit": "%"}]}, {"substance": "GSCSCScSaSgScSaScStSaSaStSTSTSC (antisense lG*l[5mC]*l[5mC]*dC*dA*dG*dC*dA*dC*dT*dA*dA*dT*lT*lT*l[5mC]) [SEQ ID NO: 186, β-D-oxy-LNA/DNA phosphorothioate gapmer antisense oligonucleotide targeting HER3]", "values": [{"measurement": "HER3: percentage down-regulation of mRNA relative to mock transfected cells", "setting": "human HER3 mRNA", "result": 79.9, "unit": "%"}]}, {"substance": "TSCSASaStScSaStScScSaSaScSASCST (antisense lT*l[5mC]*lA*dA*dT*dC*dA*dT*dC*dC*dA*dA*dC*lA*l[5mC]*lT) [SEQ ID NO: 178, β-D-oxy-LNA/DNA phosphorothioate gapmer antisense oligonucleotide targeting HER3]", "values": [{"measurement": "HER3: percentage down-regulation of mRNA relative to mock transfected cells", "setting": "human HER3 mRNA", "result": 76.7, "unit": "%"}, {"measurement": "EGFR: percentage down-regulation of mRNA relative to mock transfected cells", "setting": "human EGFR mRNA", "result": 0, "unit": "%"}, {"measurement": "HER2: percentage down-regulation of mRNA relative to mock transfected cells", "setting": "human HER2 mRNA", "result": 88.6, "unit": "%"}]}, {"substance": "TSCSAScSaScScSaStSaSgScStSCSCSA (antisense lT*l[5mC]*lA*dC*dA*dC*dC*dA*dT*dA*dG*dC*dT*l[5mC]*l[5mC]*lA) [SEQ ID NO: 174, β-D-oxy-LNA/DNA phosphorothioate gapmer antisense oligonucleotide targeting HER3]", "values": [{"measurement": "EGFR: percentage down-regulation of mRNA relative to mock transfected cells", "setting": "human EGFR mRNA", "result": 86.4, "unit": "%"}, {"measurement": "HER2: percentage down-regulation of mRNA relative to mock transfected cells", "setting": "human HER2 mRNA", "result": 94.8, "unit": "%"}]}]}
